Consider 31 compounds from patent US11634393B2, “Substituted tolyl fungicides” (FMC CORPORATION, priority 2018, dated 2023).

The subject of data set [1] is Puccinia recondita f. sp. tritici. As to the kind of experiment: Test B: wheat leaf rust, spray on wheat seedlings, disease control rating. It is filed as in vivo. The settings on record: 100 = 100% disease control, 0 = no disease control relative to the controls; for pest or weed control at 10 ppm / Test B disease control rating: Rate 10 ppm. An excerpt: (§1) General protocol for preparing test suspensions for Tests A-F: the test compounds were first dissolved in acetone in an amount equal to 3% of the final volume and then suspended at the desired concentration (in ppm) in acetone and purified water (50/50 mix by volume) containing 250 ppm of the surfactant PEG400 (polyhydric alcohol esters). The resulting test suspensions were then used in Tests A-F.
The test solution was sprayed to the point of run-off on wheat seedlings. The following day the seedlings were inoculated with a spore suspension of Puccinia recondita f. sp. tritici (the causal agent of wheat leaf rust) and incubated in a saturated atmosphere at 20° C. for 24 h, and then moved to a growth chamber at 20° C. for 7 days, after which time disease ratings were made.
(§2) A rating of 100 indicates 100% disease control and a rating of 0 indicates no disease control (relative to the controls). A dash (-) indicates the compound was not tested.

The next data set relates to Phakopsora pachyrhizi. As to the kind of experiment: Test D: Asian soybean rust, spray on soybean seedlings, disease control rating. It is filed as in vivo. Conditions: 100 = 100% disease control, 0 = no disease control relative to the controls; for pest or weed control at 10 ppm / Test D disease control rating: Rate 10 ppm.
Excerpt: as §1
The test solution was sprayed to the point of run-off on soybean seedlings. The following day the seedlings were inoculated with a spore suspension of Phakopsora pachyrhizi (the causal agent of Asian soybean rust) and incubated in a saturated atmosphere at 22° C. for 24 h and then moved to a growth chamber at 22° C. for 8 days, after which time visual disease ratings were made.
as §2

As usually defined, the pest or weed control is the degree to which the test organism was suppressed or injured, in per cent. Low readings indicate weak suppression, high ones strong suppression. Broadly, the melting point is the temperature, or range, at which the solid turns liquid.

Consider `COC(=O)NCc1cc(-c2cc(C)n(-c3c(F)cc(OC)cc3F)n2)ccc1C` [Compound 102], for which the melting point lay in the range of 128 to 132 °C. Also, the pest or weed control at 10 ppm in data set [1] (Puccinia recondita, 192 h) turned out to be 0%. The compound further yielded a pest or weed control at 10 ppm in the data set on Phakopsora pachyrhizi (Phakopsora pachyrhizi, 216 h) of 0%.
Compound `COC(=O)NCc1cc(-c2cnn(-c3c(F)cc(C(C)C)cc3F)n2)ccc1C` [Compound 108, methyl N-[[5-[2-[2,6-difluoro-4-(1-methylethyl)phenyl]-2H-1,2,3-triazol-4-yl]-2-methylphenyl]methyl]carbamate] came in with a melting point of 102 to 106 °C. This compound also registered a pest or weed control at 2 ppm in data set [1] (Puccinia recondita, 192 h, Rate 2 ppm) of 100%. Besides, the pest or weed control at 2 ppm in the data set on Phakopsora pachyrhizi (Phakopsora pachyrhizi, 216 h, Rate 2 ppm) stood at 100%.
In turn, `COC(=O)NCc1cc(-c2ccn(-c3c(F)cc(OC4CCC4)cc3F)n2)ccc1C` [Compound 13, methyl N-[[5-[1-[4-(cyclobutyloxy)-2,6-difluorophenyl]-1H-pyrazol-3-yl]-2-methylphenyl]methyl]carbamate] showed a melting point of 126 to 128 °C. In data set [1] (Puccinia recondita, 192 h), this compound yielded a pest or weed control at 10 ppm of 100%. This compound had a pest or weed control at 10 ppm with Phakopsora pachyrhizi (Phakopsora pachyrhizi, 216 h) of 100%.
Consider `COC(=O)NCc1cc(-c2cn(-c3c(Cl)cc(OC)cc3OC)nn2)ccc1C` [Compound 120], for which the melting point lay within 145 to 148 °C. In data set [1] (Puccinia recondita, 192 h), this compound showed a pest or weed control at 10 ppm of 0%. Further, in the data set with Phakopsora pachyrhizi (Phakopsora pachyrhizi, 216 h), the pest or weed control at 10 ppm came out at 0%.
On to `COC(=O)NCc1cc(-c2cn(-c3c(C)cc(OC)cc3C)nn2)ccc1C` [Compound 124], for which the melting point is 110 to 114 °C. The pest or weed control at 10 ppm in data set [1] (Puccinia recondita, 192 h) was found to be 0%. Moreover, in the data set with Phakopsora pachyrhizi (Phakopsora pachyrhizi, 216 h), the pest or weed control at 10 ppm was determined as 0%.
`COC(=O)NCc1cc(-c2ccn(-c3c(F)cc(C)cc3F)n2)ccc1C` [Compound 30] showed a melting point of 130 to 131 °C. In data set [1] (Puccinia recondita, 192 h), this compound returned a pest or weed control at 10 ppm of 98%. Also, the pest or weed control at 10 ppm with Phakopsora pachyrhizi (Phakopsora pachyrhizi, 216 h) was 100%.
The compound `COC(=O)NCc1cc(-c2ncn(-c3c(F)cc(N)cc3F)n2)ccc1C` [Compound 106] registered a melting point of 136 to 140 °C.
On to `COC(=O)NCc1cc(-c2cc(C)n(-c3c(Cl)cccc3Cl)n2)ccc1C` [Compound 101], for which the melting point lay within 146 to 150 °C. For the same compound, the pest or weed control at 10 ppm in data set [1] (Puccinia recondita, 192 h) worked out at 0%. Further, the pest or weed control at 10 ppm in the data set on Phakopsora pachyrhizi (Phakopsora pachyrhizi, 216 h) amounted to 0%.
On to `COC(=O)NCc1cc(-c2cnn(-c3c(F)cc(C)cc3F)n2)ccc1C` [Compound 111], for which the melting point lay within 117 to 121 °C. This compound showed a pest or weed control at 10 ppm in data set [1] (Puccinia recondita, 192 h) of 99%. For the same compound, the pest or weed control at 10 ppm with Phakopsora pachyrhizi (Phakopsora pachyrhizi, 216 h) was 100%.
Taken in the same sequence, the figures for `COC(=O)NCc1cc(-c2ccn(-c3c(F)cc(OC4CC4)cc3F)n2)ccc1C` [Compound 66, methyl N-[[5-[1-[4-(cyclopropyloxy)-2,6-difluorophenyl]-1H-pyrazol-3-yl]-2-methylphenyl]methyl]carbamate] were 124 to 128 °C, 100% and 100%.
As to `COC(=O)NCc1cc(-c2cn(-c3c(F)cc(Br)cc3F)nn2)ccc1C` [Compound 126], the melting point fell in the range of 160 to 164 °C. Also, the pest or weed control at 10 ppm in data set [1] (Puccinia recondita, 192 h) came out at 57%. Moreover, the pest or weed control at 10 ppm in the data set on Phakopsora pachyrhizi (Phakopsora pachyrhizi, 216 h) worked out at 0%.
`COC(=O)NCc1cc(-c2cn(-c3c(F)cc(N)cc3F)nn2)ccc1C` [Compound 131, methyl N-[[5-[1-(4-amino-2,6-difluorophenyl)-1H-1,2,3-triazol-4-yl]-2-methylphenyl]methyl]carbamate] gave a melting point of 194 to 198 °C.
Compound `COC(=O)NCc1cc(-c2cnn(-c3c(F)cccc3F)n2)ccc1C` [Compound 112] registered a melting point of 122 to 126 °C.
In the case of `COC(=O)NCc1cc(-c2ccn(-c3c(Br)cc(I)cc3Br)n2)ccc1C` [Compound 136], the pest or weed control at 10 ppm in data set [1] (Puccinia recondita, 192 h) turned out to be 19%; in the data set with Phakopsora pachyrhizi (Phakopsora pachyrhizi, 216 h), 59%.
With `COC(=O)NCc1cc(-c2ccn(-c3c(F)cc(C(C)(C)F)cc3F)n2)ccc1C` [Compound 97], the “Test B disease control rating” value in data set [1] is recorded as 100%. Moreover, the “Test D disease control rating” value in the data set on Phakopsora pachyrhizi is listed as 100%.
Turning to `COC(=O)NCc1cc(-c2ccn(-c3c(F)cc(C(C)(C)O)cc3F)n2)ccc1C` [Compound 95], the “Test B disease control rating” value in data set [1] amounted to 0%. Further, in the data set on Phakopsora pachyrhizi, the “Test D disease control rating” value is 53%.
As to `COC(=O)NCc1cc(-c2ccn(-c3c(F)cc(OC4COC4)cc3F)n2)ccc1C` [Compound 21], the “Test B disease control rating” value in data set [1] came out at 55%. In the data set with Phakopsora pachyrhizi, the “Test D disease control rating” value amounted to 100%.
With `CON=C(C)c1cc(F)c(-n2ccc(-c3ccc(C)c(CNC(=O)OC)c3)n2)c(F)c1` [Compound 99], the “Test B disease control rating” value in data set [1] was 100%. In addition, the “Test D disease control rating” value in the data set on Phakopsora pachyrhizi stood at 100%.
As to `COC(=O)NCc1cc(-c2ccn(-c3c(F)cc(NC(=O)OC)cc3F)n2)ccc1C` [Compound 24], the “Test B disease control rating” value in data set [1] came out at 0%. Further, the “Test D disease control rating” value with Phakopsora pachyrhizi is 75%.
On to `COC(=O)NCc1cc(-c2ccn(-c3c(C)cc(Cl)cc3C)n2)ccc1C` [Compound 49], for which the pest or weed control at 10 ppm in data set [1] (Puccinia recondita, 192 h) worked out at 68%; in the data set on Phakopsora pachyrhizi (Phakopsora pachyrhizi, 216 h), 99%.
Turning to `CCON=C(C)c1cc(F)c(-n2ncc(-c3ccc(C)c(CNC(=O)OC)c3)n2)c(F)c1` [Compound 142], in data set [1], the “Test B disease control rating” value is reported as 86%. In addition, in the data set with Phakopsora pachyrhizi, the “Test D disease control rating” value was 100%.
Taken in the same sequence, the figures for `CCON=Cc1cc(F)c(-n2ccc(-c3ccc(C)c(CNC(=O)OC)c3)n2)c(F)c1` [Compound 80] were 100% and 100%.
With `COC(=O)NCc1cc(-c2ccn(-c3c(F)cc(C(C)=O)cc3F)n2)ccc1C` [Compound 68, methyl N-[[5-[1-(4-acetyl-2,6-difluorophenyl)-1H-pyrazol-3-yl]-2-methylphenyl]methyl]carbamate], the pest or weed control at 10 ppm in data set [1] (Puccinia recondita, 192 h) was determined as 74%; with Phakopsora pachyrhizi (Phakopsora pachyrhizi, 216 h), 71%.
Turning to `COC(=O)NCc1cc(-c2ccn(-c3c(C)cc(OC)cc3C)n2)ccc1C` [Compound 40], the pest or weed control at 10 ppm in data set [1] (Puccinia recondita, 192 h) came out at 0%; in the data set on Phakopsora pachyrhizi (Phakopsora pachyrhizi, 216 h) it was 99%.
`C=C(C)c1cc(Br)c(-n2ccc(-c3ccc(C)c(CNC(=O)OC)c3)n2)c(Br)c1` [Compound 137]: the “Test B disease control rating” value in data set [1] is on record as 0%. Moreover, the “Test D disease control rating” value in the data set with Phakopsora pachyrhizi stood at 77%.
On to `COC(=O)NCc1cc(-c2ccn(-c3c(Cl)cccc3Cl)n2)ccc1C` [Compound 44], for which the pest or weed control at 10 ppm turned out to be 68% in data set [1] (Puccinia recondita, 192 h) and 100% in the data set with Phakopsora pachyrhizi (Phakopsora pachyrhizi, 216 h).
Taken in the same sequence, the figures for `COC(=O)NCc1cc(-c2ccn(-c3c(Br)cccc3I)n2)ccc1C` [Compound 52] were 0% and 99%.
For `COC(=O)NCc1cc(-c2ccn(-c3c(C)cc([N+](=O)[O-])cc3C)n2)ccc1C` [Compound 35] the same measures were 0% and 0%.
Take `COC(=O)NCc1cc(-c2ccn(-c3c(C)cc(N)cc3C)n2)ccc1C` [Compound 38]: the pest or weed control at 10 ppm was determined as 0% in data set [1] (Puccinia recondita, 192 h) and 0% with Phakopsora pachyrhizi (Phakopsora pachyrhizi, 216 h).
Consider `COC(=O)NCc1cc(-c2cnn(-c3c(F)cc(C(C)=O)cc3F)n2)ccc1C` [Compound 140], for which the “Test B disease control rating” value in data set [1] amounted to 41%. The “Test D disease control rating” value in the data set on Phakopsora pachyrhizi is 71%.
Taken in the same sequence, the figures for `COC(=O)NCc1cc(-c2ccn(-c3c(F)cc(C(C)O)cc3F)n2)ccc1C` (stereo not drawn) [Compound 96] were 68% and 79%.
